What all share (assay type): in vivo
Data set [1] concerns C57BL/6J mice. Nature of the data set: Pharmacological Test-5: once-daily instillation of Compounds 5, 6 and 7 for 2 weeks, lens elasticity. To be noted: once per day for 14 days; for Lens elasticity improvement: 2.5 μL/eye, 8-month-old mice, vs vehicle control. Here is the method: The effect of once-daily instillation of each of Compounds 5, 6, and 7 for 2 weeks on the lens elasticity was examined.
(§1) A vehicle comprising 1.0% (w/v) of CO35, 0.1% (w/v) of ethyl pyruvate, 0.269% (w/v) of sodium dihydrogenphosphate monohydrate (NaH2 PO4.H2O), 0.433% (w/v) of disodium hydrogenphosphate (Na2HPO4), 0.2% (w/v) of hydroxypropyl methylcellulose, 0.5% (w/v) of NaCl, and purified water (appropriate amount) was prepared.
Compound 5 was stirred with the addition of the vehicle to give a 0.1% (w/v) suspension. The resulting 0.1% (w/v) suspension was diluted with the vehicle to give a 0.03% (w/v) suspension.
Compound 6 was stirred with the addition of the vehicle to give a 0.1% (w/v) suspension. The resulting 0.1% (w/v) a suspension was diluted with the vehicle to give a 0.03% (w/v) suspension.
Compound 7 was stirred with the addition of the vehicle to give a 0.1% (w/v) suspension.
(§2) After preparation, all were refrigerated.
EVO6 was stirred with the addition of the vehicle to give a 0.03% (w/v) solution, which was for comparison in the test for Compounds 5, 6 and 7. After preparation, it was refrigerated.
1) Each test sample (2.5 μL/eye) was instilled into both eyes of 8-month-old C57BL/6J mice with a Pipetman once per day (around 13:30) for 14 days.
(§3) 2) After the final instillation, the mice were euthanized by carbon dioxide inhalation, and then the eyeballs were extracted and rinsed with Hank's balanced salt solution (HBSS).
(§4) 3) The sclera near the optic nerve was cut with a razor, the lens was removed through the incision, and the removed lens was immersed in HBSS.
(§5) 4) The lens was placed on a glass slide, and an all-in-one fluorescence microscope BZ-9000 (Keyence) was used to capture an image of the lens (Image a).
(§6) 5) Next, one cover glass (Corning(registered trade mark) 22×22 mm Square) was placed on the lens, and an image in which the thickness of the lens changed due to the weight was similarly captured (Image b).
6) A change in the lens diameter was calculated from Equation 1 wherein the lens diameter of Image a is subtracted from the lens diameter of Image b, as described below. Then, the lens elasticity improvement of each sample group compared with the vehicle control group was calculated from Equation 2 described below. The mean value of each group was based on 8 eyes.
(§7) Change in lens diameter=Lens diameter in Image b of each test sample−Lens diameter in Image a of each test sample Equation 1
(§8) Lens elasticity improvement of each sample group=Mean change in lens diameter of each Test sample group−Mean change in lens diameter of Vehicle control group Equation 2

Data set [2] deals with C57BL/6J mice. Nature of the data set: Pharmacological Test-3: once-daily instillation of Compounds 1, 2 and 3 for 2 weeks, lens elasticity. Conditions: once per day for 14 days; for Lens elasticity improvement: 2.5 μL/eye, 8-month-old mice, vs vehicle control. As to the method: The effect of once-daily instillation of each of Compounds 1, 2 and 3 for 2 weeks on the lens elasticity was examined.
as §1
Each of Compounds 1 and 2 was stirred with the addition of the vehicle to give a 0.1% (w/v) solution.
To Compound 3 was added the vehicle to give a 0.1% (w/v) suspension. The resulting 0.1% (w/v) suspension was diluted with the vehicle to give a 0.03% (w/v) solution. Further, the resulting 0.03% (w/v) solution was diluted with the vehicle to give a 0.01% (w/v) solution.
After preparation, all were frozen.
1) Each test sample (2.5 μL/eye) was instilled into both eyes of 8-month-old C57BL/6J mice with a Pipetman once per day (around 9:00) for 14 days.
as §3, §4, §5, §6
(§9) 6) A change in the lens diameter was calculated from Equation 1 wherein the lens diameter of Image a is subtracted from the lens diameter of Image b, as described below. Then, the lens elasticity improvement of each sample group compared with the vehicle control group was calculated from Equation 2 described below. The mean value of each group was based on 10 eyes.
as §7, §8

In data set [3] the test system is C57BL/6J mice. The experiment in a line: Pharmacological Test-4: once-daily instillation of Compounds 3 and 4 for 2 weeks, lens elasticity. Conditions: once per day for 14 days; for Lens elasticity improvement: 2.5 μL/eye, 8-month-old mice, vs vehicle control. Here is the method: The effect of once-daily instillation of each of Compounds 3 and 4 for 2 weeks on the lens elasticity was examined.
as §1
Compound 3 was stirred with the addition of the vehicle to give a 0.03% (w/v) suspension.
Compound 4 was stirred with the addition of the vehicle to give a 0.1% (w/v) suspension. The resulting 0.1% (w/v) suspension was diluted with the vehicle to give a 0.03% (w/v) suspension. Further, the resulting 0.03% (w/v) suspension was diluted with the vehicle to give a 0.01% (w/v) suspension.
as §2
1) Each test sample (2.5 μL/eye) was instilled into both eyes of 8-month-old
C57BL/6J mice with a Pipetman once per day (around 9:00) for 14 days.
as §3, §4, §5, §6, §9, §7, §8

For data set [4], the system named is Japanese White rabbit. Nature of the data set: Ocular irritation test-2 (McDonald-Shadduck method). Also noted: key to Irritation Score of anterior segment of the eye: Discharge / Irritation Score of anterior segment of the eye: Anterior chamber flare / Irritation Score of anterior segment of the eye: Light reflex / Irritation Score of anterior segment of the eye: Iris / Irritation Score of anterior segment of the eye: Corneal opacity / Irritation Score of anterior segment of the eye: Corneal angiogenesis / Irritation Score of anterior segment of the eye: Corneal epithelial disorder / Irritation Score of anterior segment of the eye: Conjunctival hyperemia / Irritation Score of anterior segment of the eye: Conjunctival edema: —: No noteworthy findings. Conditions: 50 μL/eye, 10 times at 30-minute intervals; for Irritation Score of anterior segment of the eye: Anterior chamber flare / Irritation Score of anterior segment of the eye: Conjunctival edema / Irritation Score of anterior segment of the eye: Corneal angiogenesis / Irritation Score of anterior segment of the eye: Corneal opacity / Irritation Score of anterior segment of the eye: Discharge / Irritation Score of anterior segment of the eye: Iris / Irritation Score of anterior segment of the eye: Light reflex / Irritation Score of anterior segment of the eye: Conjunctival hyperemia: 1 hour after the final instillation; for Irritation Score of anterior segment of the eye: Conjunctival hyperemia: scale +1 slight, +2 moderate, +3 severe; for Irritation Score of anterior segment of the eye: Corneal epithelial disorder: 3 hours after the final instillation. As to the method: A vehicle eye drop and 0.01% (w/v) and 0.1% (w/v) Compound 4 eye drops were prepared in the same manner as Preparation of Test sample in Pharmacological test-4.
The vehicle eye drop, and the 0.01% (w/v) and 0.1% (w/v) Compound 4 eye drops were each instilled into one eye of a Japanese White rabbit at a dose volume of 50 μL/eye with pipette 10 times at 30-minute intervals. One hour after the final instillation, ocular irritation of anterior segment of the eye was evaluated using a slit lamp according to the McDonald-Shadduck method. Observation for corneal epithelial disorder was conducted 3 hours after the final instillation.
The ocular irritation of anterior segment of the eye was scored according to the following criteria: • +1: slight; +2: moderate; +3: severe

Setting [5] is: concentrations of 0.03% and 0.1%.
Setting [6] is: all of the concentrations of 0.01%, 0.03% and 0.1%.

As for `OCCCCC1CCSS1` (centres unmarked) [Compound 6, 4-(1,2-Dithiolan-3-yl)butan-1-ol], the Lens elasticity improvement in data set [1] (0.03% sample) was 40.0 μm; in data set [1] (0.1% sample), 58.9 μm. In addition, the “Lens elasticity effect (in words)” value in data set [1] (setting [5]) is “potent elasticity improving effect”.

On to `OCCOCCC1CCSS1` (centres unmarked) [Compound 7, 2-[2-(1,2-Dithiolan-3-yl)ethoxy]ethan-1-ol], for which, in data set [1] (0.1% sample group), the “Lens elasticity effect (in words)” value is recorded as “potent elasticity improving effect”. The molecule also registered a Lens elasticity improvement in data set [1] (0.1% sample) of 41.4 μm.

Regarding `OCCCCCC(S)CCS` (centres unmarked) [Compound 2, 6,8-Dimercaptooctan-1-ol], the “Lens elasticity effect (in words)” value in data set [2] (0.03% sample group) is reported as “potent elasticity improving effect”. Also, the Lens elasticity improvement in data set [2] (0.03% sample) was determined as 42.2 μm.

With `OCCCCCC1CCSS1` (centres unmarked) [Compound 3, 5-(1,2-Dithiolan-3-yl)pentan-1-ol], the Lens elasticity improvement in data set [2] (0.01% sample) is listed as 21.5 μm; in data set [2] (0.03% sample), 47.3 μm; in data set [2] (0.1% sample), 60.1 μm; in data set [3] (0.03% sample) it was 39.9 μm. The “Lens elasticity effect (in words)” value in data set [2] (setting [6]) is listed as “showed an elasticity improving effect”.

In data set [3] (0.01% sample), `OCCCCC[C@@H]1CCSS1` [Compound 4] came in with a Lens elasticity improvement of 31.1 μm. Besides, the Lens elasticity improvement in data set [3] (0.03% sample) was determined as 60.2 μm. In addition, in data set [3] (0.1% sample), the Lens elasticity improvement was 66.7 μm. Moreover, the “Lens elasticity effect (in words)” value in data set [3] (setting [6]) is “showed an elasticity improving effect”. The “Irritation in anterior segment of the eye (in words)” value in data set [4] (0.01% (w/v) and 0.1% (w/v) eye drops) is “No irritation was observed”. In addition, in data set [4] (0.01% eye drop), the “Irritation Score of anterior segment of the eye: Anterior chamber flare” value is listed as “—”, the “Irritation Score of anterior segment of the eye: Conjunctival edema” value is listed as “—”, the “Irritation Score of anterior segment of the eye: Corneal angiogenesis” value was “—” and the “Irritation Score of anterior segment of the eye: Corneal opacity” value was “—”. Also, in data set [4] (0.01% eye drop), the “Irritation Score of anterior segment of the eye: Discharge” value is recorded as “—”, the “Irritation Score of anterior segment of the eye: Iris” value is given as “—”, the “Irritation Score of anterior segment of the eye: Light reflex” value is “—” and the “Irritation Score of anterior segment of the eye: Conjunctival hyperemia” value is on record as “—”. In addition, in data set [4] (0.01% eye drop), the “Irritation Score of anterior segment of the eye: Corneal epithelial disorder” value was “—”. Further, in data set [4] (0.1% eye drop), the “Irritation Score of anterior segment of the eye: Anterior chamber flare” value is listed as “—”, the “Irritation Score of anterior segment of the eye: Conjunctival edema” value is on record as “—”, the “Irritation Score of anterior segment of the eye: Corneal angiogenesis” value was “—” and the “Irritation Score of anterior segment of the eye: Corneal opacity” value was “—”. In addition, in data set [4] (0.1% eye drop), the “Irritation Score of anterior segment of the eye: Discharge” value is on record as “—”, the “Irritation Score of anterior segment of the eye: Iris” value is “—”, the “Irritation Score of anterior segment of the eye: Light reflex” value is “—” and the “Irritation Score of anterior segment of the eye: Conjunctival hyperemia” value is “—”. Besides, the “Irritation Score of anterior segment of the eye: Corneal epithelial disorder” value in data set [4] (0.1% eye drop) is given as “—”.

Turning to `OCCCCCCC1CCSS1` (centres unmarked) [Compound 5, 6-(1,2-Dithiolan-3-yl)hexan-1-ol], the Lens elasticity improvement in data set [1] (0.03% sample) is 22.3 μm; in data set [1] (0.1% sample), 26.6 μm. The “Lens elasticity effect (in words)” value in data set [1] (setting [5]) is given as “potent elasticity improving effect”.
